Assay results: publication PMC6566410, “Novel Diamide-Based Benzenesulfonamides as Selective Carbonic Anhydrase IX Inhibitors Endowed with Antitumor Activity: Synthesis, Biological Evaluation and In Silico Insights” (International Journal of Molecular Sciences, 2019)

Experiments:
UO-31 = assay: NCI one-dose SRB assay; format: cell-based; conditions: Homo sapiens; UO-31 (Renal Cancer), 1.00E-5 Molar, one dose; read-out: Growth Percent
Protocol: (§1) First, all diamide-based benzenesulfonamides herein reported 5a–h were screened for their antitumor activity at one dose (10^−5 M) assay against a panel of sixty cancer cell lines through the National Cancer Institute (NCI) Developmental Therapeutic Program (www.dtp.nci.nih.gov), according to US-NCI protocol. The cell growth and cell viability were evaluated using the sulforhodamine B (SRB) colorimetric assay.
The obtained data were reported as mean-graph of the percentage growth of the different treated tumour cells (Supplementary Materials). Exploration of results for this assay confirmed that the examined diamide-based benzenesulfonamides 5a–h had non-significant activity towards most NCI cancer cell lines.
(§2) This assay was carried out according to the protocol of the Drug Evaluation Branch, NCI, Bethesda. The cell growth and cell viability were evaluated using the sulforhodamine B (SRB) colorimetric assay, as reported earlier.

hCA XII = hCA XII (Homo sapiens, UniProt O43570); assay: stopped-flow CO2 hydrase assay; conditions: for Selectivity ratio I/XII: KI hCA I / KI hCA XII; for Selectivity ratio II/XII: KI hCA II / KI hCA XII
hCA XII, sequence (O43570 25-354): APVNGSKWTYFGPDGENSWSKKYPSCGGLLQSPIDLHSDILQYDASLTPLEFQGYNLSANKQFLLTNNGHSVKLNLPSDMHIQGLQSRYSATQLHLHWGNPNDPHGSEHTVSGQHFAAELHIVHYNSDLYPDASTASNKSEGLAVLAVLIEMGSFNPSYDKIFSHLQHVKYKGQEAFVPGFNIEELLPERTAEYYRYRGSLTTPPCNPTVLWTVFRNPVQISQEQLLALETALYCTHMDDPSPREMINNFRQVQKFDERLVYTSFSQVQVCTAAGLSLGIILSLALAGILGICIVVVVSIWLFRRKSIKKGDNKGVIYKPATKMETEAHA
Excerpt: (§3) An Applied Photophysics stopped-flow instrument was used for assaying the CA catalysed CO2 hydration activity, as reported earlier [17]. The inhibition constants were obtained by non-linear least-squares methods using PRISM 3 and the Cheng-Prusoff equation as reported earlier, and represent the mean from at least three different determinations. The four tested CA isofoms were recombinant ones obtained in-house as reported earlier [26, 27, 28, 29].

K-562 = assay: NCI one-dose SRB assay; format: cell-based; conditions: Homo sapiens, K562, K-562 (Leukemia), 1.00E-5 Molar, read-out: Growth Percent
Protocol: as §1, §2

NCI/ADR-RES = assay: NCI one-dose SRB assay; format: cell-based; conditions: Homo sapiens, NCI/ADR-RES (Ovarian Cancer), 1.00E-5 Molar, read-out: Growth Percent
Protocol: as §1, §2

COLO 205 = assay: NCI one-dose SRB assay; format: cell-based; conditions: Homo sapiens, COLO 205 (Colon Cancer), 1.00E-5 Molar, read-out: Growth Percent
Protocol: as §1, §2

T-47D = assay: NCI one-dose SRB assay; format: cell-based; conditions: Homo sapiens, T47D, T-47D (Breast Cancer), 1.00E-5 Molar, read-out: Growth Percent
Protocol: as §1, §2

HOP-62 = assay: NCI one-dose SRB assay; format: cell-based; conditions: Homo sapiens, HOP-62 (Non-Small Cell Lung Cancer), 1.00E-5 Molar, read-out: Growth Percent
Protocol: as §1, §2

KM12 = assay: NCI one-dose SRB assay; format: cell-based; conditions: Homo sapiens, KM12 (Colon Cancer), 1.00E-5 Molar, read-out: Growth Percent
Protocol: as §1, §2

MOLT-4 = assay: NCI one-dose SRB assay; format: cell-based; conditions: Homo sapiens, MOLT-4 (Leukemia), 1.00E-5 Molar, read-out: Growth Percent
Protocol: as §1, §2

MDA-MB-468 = assay: NCI one-dose SRB assay; format: cell-based; conditions: Homo sapiens, MDA-MB-468 (Breast Cancer), 1.00E-5 Molar, read-out: Growth Percent
Protocol: as §1, §2

NCI-H23 = assay: NCI one-dose SRB assay; format: cell-based; conditions: Homo sapiens, NCI-H23 (Non-Small Cell Lung Cancer), 1.00E-5 Molar, read-out: Growth Percent
Protocol: as §1, §2

SF-268 = assay: NCI one-dose SRB assay; format: cell-based; conditions: Homo sapiens, SF-268 (CNS Cancer), 1.00E-5 Molar, read-out: Growth Percent
Protocol: as §1, §2

LOX IMVI = assay: NCI one-dose SRB assay; format: cell-based; conditions: Homo sapiens, LOX IMVI (Melanoma), 1.00E-5 Molar, read-out: Growth Percent
Protocol: as §1, §2

SK-OV-3 = assay: NCI one-dose SRB assay; format: cell-based; conditions: Homo sapiens, SK-OV-3 (Ovarian Cancer), 1.00E-5 Molar, read-out: Growth Percent
Protocol: as §1, §2

OVCAR-4 = assay: NCI one-dose SRB assay; format: cell-based; conditions: Homo sapiens, OVCAR-4 (Ovarian Cancer), 1.00E-5 Molar, read-out: Growth Percent
Protocol: as §1, §2

DU-145 = assay: NCI one-dose SRB assay; format: cell-based; conditions: Homo sapiens, DU-145 (Prostate Cancer), 1.00E-5 Molar, read-out: Growth Percent
Protocol: as §1, §2

SK-MEL-28 = assay: NCI one-dose SRB assay; format: cell-based; conditions: Homo sapiens, SK-MEL-28 (Melanoma), 1.00E-5 Molar, read-out: Growth Percent
Protocol: as §1, §2

SF-295 = assay: NCI one-dose SRB assay; format: cell-based; conditions: Homo sapiens, SF-295 (CNS Cancer), 1.00E-5 Molar, read-out: Growth Percent
Protocol: as §1, §2

SNB-75 = assay: NCI one-dose SRB assay; format: cell-based; conditions: Homo sapiens, SNB-75 (CNS Cancer), 1.00E-5 Molar, read-out: Growth Percent
Protocol: as §1, §2

SK-MEL-2 = assay: NCI one-dose SRB assay; format: cell-based; conditions: Homo sapiens, SK-MEL-2 (Melanoma), 1.00E-5 Molar, read-out: Growth Percent
Protocol: as §1, §2

A498 = assay: NCI one-dose SRB assay; format: cell-based; conditions: Homo sapiens, A498 (Renal Cancer), 1.00E-5 Molar, read-out: Growth Percent
Protocol: as §1, §2

SK-MEL-5 = assay: NCI one-dose SRB assay; format: cell-based; conditions: Homo sapiens, SK-MEL-5 (Melanoma), 1.00E-5 Molar, read-out: Growth Percent
Protocol: as §1, §2

U251 = assay: NCI one-dose SRB assay; format: cell-based; conditions: Homo sapiens, U-251, U251 (CNS Cancer), 1.00E-5 Molar, read-out: Growth Percent
Protocol: as §1, §2

SNB-19 = assay: NCI one-dose SRB assay; format: cell-based; conditions: Homo sapiens, SNB-19 (CNS Cancer), 1.00E-5 Molar, read-out: Growth Percent
Protocol: as §1, §2

OVCAR-5 = assay: NCI one-dose SRB assay; format: cell-based; conditions: Homo sapiens, OVCAR-5 (Ovarian Cancer), 1.00E-5 Molar, read-out: Growth Percent
Protocol: as §1, §2

MCF7 = assay: NCI one-dose SRB assay; format: cell-based; conditions: Homo sapiens, MCF7 (Breast Cancer), 1.00E-5 Molar, read-out: Growth Percent
Protocol: as §1, §2

NCI-H522 = assay: NCI one-dose SRB assay; format: cell-based; conditions: Homo sapiens, NCI-H522 (Non-Small Cell Lung Cancer), 1.00E-5 Molar, read-out: Growth Percent
Protocol: as §1, §2

SW-620 = assay: NCI one-dose SRB assay; format: cell-based; conditions: Homo sapiens, SW-620 (Colon Cancer), 1.00E-5 Molar, read-out: Growth Percent
Protocol: as §1, §2

HCC-2998 = assay: NCI one-dose SRB assay; format: cell-based; conditions: Homo sapiens, HCC-2998 (Colon Cancer), 1.00E-5 Molar, read-out: Growth Percent
Protocol: as §1, §2

hCA I = hCA I (Homo sapiens, UniProt P00915); assay: stopped-flow CO2 hydrase assay
hCA I, sequence (P00915 whole entry): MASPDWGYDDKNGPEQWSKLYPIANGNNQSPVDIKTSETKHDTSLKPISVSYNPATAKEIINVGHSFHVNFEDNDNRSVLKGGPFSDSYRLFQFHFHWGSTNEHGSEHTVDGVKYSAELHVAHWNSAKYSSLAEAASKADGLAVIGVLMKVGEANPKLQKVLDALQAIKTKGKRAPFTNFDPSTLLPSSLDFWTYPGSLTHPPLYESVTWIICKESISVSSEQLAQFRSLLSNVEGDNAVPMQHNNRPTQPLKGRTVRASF
Excerpt: as §3

| SMILES | activity at 10 µM (UO-31) | Ki (hCA XII) | Selectivity ratio I/XII (hCA XII) | activity at 10 µM (K-562) | activity at 10 µM (NCI/ADR-RES) | activity at 10 µM (COLO 205) | activity at 10 µM (T-47D) | activity at 10 µM (HOP-62) | activity at 10 µM (KM12) | activity at 10 µM (MOLT-4) | activity at 10 µM (MDA-MB-468) | activity at 10 µM (NCI-H23) | activity at 10 µM (SF-268) | activity at 10 µM (LOX IMVI) | activity at 10 µM (SK-OV-3) | activity at 10 µM (OVCAR-4) | activity at 10 µM (DU-145) | activity at 10 µM (SK-MEL-28) | activity at 10 µM (SF-295) | activity at 10 µM (SNB-75) | also measured |
| --- | --- | --- | --- | --- | --- | --- | --- | --- | --- | --- | --- | --- | --- | --- | --- | --- | --- | --- | --- | --- | --- |
| NS(=O)(=O)c1ccc(NC(=O)C(=Cc2ccc(Cl)cc2)NC(=O)c2ccccc2)cc1 [Compound 5a, N-(1-(4-Chlorophenyl)-3-oxo-3-((4-sulfamoylphenyl)amino)prop-1-en-2-yl)benzamide] | 78.7% | 16.1 nM | 245.7 | 109% | 104% | 104% | 95.5% | 91.9% | 108% | 103% | 101% | 103% | 96% | 97% | 97% | 95.5% | 107% | 110% | 104% | 86.3% | Selectivity ratio II/XII (hCA XII): 4.2; activity at 10 µM (SK-MEL-2): 102%; activity at 10 µM (A498): 104%; activity at 10 µM (SK-MEL-5): 100%; activity at 10 µM (U251): 95.3%; activity at 10 µM (SNB-19): 103%; activity at 10 µM (OVCAR-5): 105%; activity at 10 µM (MCF7): 98.3%; activity at 10 µM (NCI-H522): 90.9%; activity at 10 µM (SW-620): 100%; activity at 10 µM (HCC-2998): 103%; Ki (hCA I): 3960 nM |
| NS(=O)(=O)c1ccc(NC(=O)C(=Cc2ccc(Cl)cc2Cl)NC(=O)c2ccccc2)cc1 [Compound 5b, N-(1-(2,4-Dichlorophenyl)-3-oxo-3-((4-sulfamoylphenyl)amino)prop-1-en-2-yl)benzamide] | 75.8% | 10.5 nM | 569.2 | 88.2% | 98.2% | 110% | 87.5% | 95.7% | 102% | 92.3% | 110% | 107% | 94.5% | 96.2% | 96.3% | 97.7% | 109% | 110% | 104% | 81.4% | Selectivity ratio II/XII (hCA XII): 21.3; activity at 10 µM (SK-MEL-2): 95.3%; activity at 10 µM (A498): 95%; activity at 10 µM (SK-MEL-5): 90.2%; activity at 10 µM (U251): 97.1%; activity at 10 µM (SNB-19): 95.6%; activity at 10 µM (OVCAR-5): 108%; activity at 10 µM (MCF7): 90.1%; activity at 10 µM (NCI-H522): 80.3%; activity at 10 µM (SW-620): 104%; activity at 10 µM (HCC-2998): 103%; Ki (hCA I): 5980 nM |
| NS(=O)(=O)c1ccc(NC(=O)C(=Cc2ccc(Br)cc2)NC(=O)c2ccccc2)cc1 [Compound 5c, N-(1-(4-Bromophenyl)-3-oxo-3-((4-sulfamoylphenyl)amino)prop-1-en-2-yl)benzamide] | 77.2% | 55.4 nM | 43.3 | 92.8% | 102% | 105% | 92.1% | 104% | 102% | 89.5% | 99.9% | 100% | 99.6% | 99.7% | 101% | 93.7% | 108% | 113% | 99.2% | 86.5% | Selectivity ratio II/XII (hCA XII): 4.5; activity at 10 µM (SK-MEL-2): 97.3%; activity at 10 µM (A498): 94.5%; activity at 10 µM (SK-MEL-5): 93.1%; activity at 10 µM (U251): 93.1%; activity at 10 µM (SNB-19): 95.1%; activity at 10 µM (OVCAR-5): 99.8%; activity at 10 µM (MCF7): 98.1%; activity at 10 µM (NCI-H522): 87.9%; activity at 10 µM (SW-620): 104%; activity at 10 µM (HCC-2998): 103%; Ki (hCA I): 2400 nM |
| Cc1ccc(C=C(NC(=O)c2ccccc2)C(=O)Nc2ccc(S(N)(=O)=O)cc2)cc1 [Compound 5d, N-(3-Oxo-3-((4-sulfamoylphenyl)amino)-1-(p-tolyl)prop-1-en-2-yl)benzamide] | 87% | 60.2 nM | 13.2 | 94.6% | 99.3% | 117% | 101% | 114% | 103% | 81.3% | 111% | 94.9% | 106% | 99% | 100% | 90.6% | 105% | 118% | 106% | 92.6% | activity at 10 µM (SK-MEL-2): 102%; activity at 10 µM (A498): 103%; activity at 10 µM (SK-MEL-5): 97%; activity at 10 µM (U251): 99%; activity at 10 µM (SNB-19): 103%; activity at 10 µM (OVCAR-5): 103%; activity at 10 µM (MCF7): 104%; activity at 10 µM (NCI-H522): 89.9%; activity at 10 µM (SW-620): 113%; activity at 10 µM (HCC-2998): 100%; Ki (hCA I): 796 nM |
| COc1ccc(C=C(NC(=O)c2ccccc2)C(=O)Nc2ccc(S(N)(=O)=O)cc2)cc1 [Compound 5e, N-(1-(4-Methoxyphenyl)-3-oxo-3-((4-sulfamoylphenyl)amino)prop-1-en-2-yl)benzamide] | 86.4% | 42.8 nM | 23.5 | 101% | 106% | 110% | 101% | 104% | 106% | 104% | 108% | 99.6% | 113% | 99.1% | 97.1% | 111% | 113% | 106% | 112% | 95.5% | Selectivity ratio II/XII (hCA XII): 3; activity at 10 µM (SK-MEL-2): 102%; activity at 10 µM (A498): 102%; activity at 10 µM (SK-MEL-5): 100%; activity at 10 µM (U251): 99.4%; activity at 10 µM (SNB-19): 100%; activity at 10 µM (OVCAR-5): 108%; activity at 10 µM (MCF7): 98.5%; activity at 10 µM (NCI-H522): 90.5%; activity at 10 µM (SW-620): 101%; activity at 10 µM (HCC-2998): 106%; Ki (hCA I): 1010 nM |
